#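 Test compounds were applied to cells in 96-well plates for 48 hours at 5 doses. Here, GI50 denotes the concentration required for 50% inhibition of growth.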 Activity calls are given as the source filed them. Cut-off read from the data, not from the text of the source: active = GI50 up to about 1.1 µM and inactive = higher.
# Assays:
# Experiment in all cases: NCI tumour cell line growth inhibition, 48 h
# NCI-H460 = system: NCI-H460
# MOLT-4 = system: MOLT-4
# OVCAR-4 = system: OVCAR-4
# RPMI-8226 = system: RPMI-8226
# 786-0 = system: 786-0
# HOP-62 = system: HOP-62
# SF-295 = system: SF-295
# DMS-273 = system: DMS-273
# M14 = system: M14
# HT-29 = system: HT-29
# SK-OV-3 = system: SK-OV-3
# EKVX = system: EKVX
# SNB-75 = system: SNB-75
# LXFL 529 = system: LXFL 529
# KM-20L2 = system: KM-20L2
# Malme-3M = system: Malme-3M
# HCT-116 = system: HCT-116
# SNB-19 = system: SNB-19
# SK-MEL-5 = system: SK-MEL-5
# IGROV-1 = system: IGROV-1
# KM12 = system: KM12
# UACC-257 = system: UACC-257
# SN12C = system: SN12C
# ACHN = system: ACHN
# HL-60 = system: HL-60
# SF-268 = system: SF-268
# TK-10 = system: TK-10
# NCI-H23 = system: NCI-H23
# A549 = system: A549
# SNB-78 = system: SNB-78
# LOX IMVI = system: LOX IMVI
# OVCAR-5 = system: OVCAR-5
# SF-539 = system: SF-539
# DMS-114 = system: DMS-114
# SK-MEL-28 = system: SK-MEL-28
# XF498 = system: XF498
# HCT-15 = system: HCT-15
# NCI-H226 = system: NCI-H226
# U-251 = system: U-251
# UACC-62 = system: UACC-62
# CCRF-CEM = system: CCRF-CEM
# COLO 205 = system: COLO 205
# OVCAR-8 = system: OVCAR-8
# A498 = system: A498
# K562 = system: K562
# SW-620 = system: SW-620
# RXF 393 = system: RXF 393
# SK-MEL-2 = system: SK-MEL-2
# M19-MEL = system: M19-MEL
# CAKI-1 = system: CAKI-1
# NCI-H522 = system: NCI-H522
# DLD-1 = system: DLD-1
# UO-31 = system: UO-31
# HOP-18 = system: HOP-18
# HCC 2998 = system: HCC 2998
# MCF7 = system: MCF7
# OVCAR-3 = system: OVCAR-3
# NCI/ADR-RES = system: NCI/ADR-RES
smiles,measurement,setting,value
COC(=O)/C=C(\C)CCC1SC1(C)C (configuration not stated),GI50,NCI-H460,> 100 µM (inactive)
same,GI50,MOLT-4,> 100 µM (inactive)
same,GI50,OVCAR-4,> 100 µM (inactive)
same,GI50,RPMI-8226,> 100 µM (inactive)
same,GI50,786-0,> 100 µM (inactive)
same,GI50,HOP-62,> 100 µM (inactive)
same,GI50,SF-295,> 100 µM (inactive)
same,GI50,DMS-273,> 100 µM (inactive)
same,GI50,M14,> 100 µM (inactive)
same,GI50,HT-29,> 100 µM (inactive)
same,GI50,SK-OV-3,> 100 µM (inactive)
same,GI50,EKVX,> 100 µM (inactive)
same,GI50,SNB-75,> 100 µM (inactive)
same,GI50,LXFL 529,> 100 µM (inactive)
same,GI50,KM-20L2,> 100 µM (inactive)
same,GI50,Malme-3M,> 100 µM (inactive)
same,GI50,HCT-116,> 100 µM (inactive)
same,GI50,SNB-19,> 100 µM (inactive)
same,GI50,SK-MEL-5,> 100 µM (inactive)
same,GI50,IGROV-1,> 100 µM (inactive)
same,GI50,KM12,> 100 µM (inactive)
same,GI50,UACC-257,> 100 µM (inactive)
same,GI50,SN12C,> 100 µM (inactive)
same,GI50,ACHN,> 100 µM (inactive)
same,GI50,HL-60,> 100 µM (inactive)
same,GI50,SF-268,> 100 µM (inactive)
same,GI50,TK-10,> 100 µM (inactive)
same,GI50,NCI-H23,> 100 µM (inactive)
same,GI50,A549,> 100 µM (inactive)
same,GI50,SNB-78,> 100 µM (inactive)
same,GI50,LOX IMVI,> 100 µM (inactive)
same,GI50,OVCAR-5,> 100 µM (inactive)
same,GI50,SF-539,> 100 µM (inactive)
same,GI50,DMS-114,91.8 µM (inactive)
same,GI50,SK-MEL-28,> 100 µM (inactive)
same,GI50,XF498,> 100 µM (inactive)
same,GI50,HCT-15,> 100 µM
same,GI50,NCI-H226,> 100 µM (inactive)
same,GI50,U-251,> 100 µM (inactive)
same,GI50,UACC-62,> 100 µM (inactive)
same,GI50,CCRF-CEM,> 100 µM (inactive)
same,GI50,COLO 205,> 100 µM (inactive)
same,GI50,OVCAR-8,> 100 µM (inactive)
same,GI50,A498,> 100 µM (inactive)
same,GI50,K562,> 100 µM (inactive)
same,GI50,SW-620,77.3 µM (inactive)
same,GI50,RXF 393,> 100 µM (inactive)
same,GI50,SK-MEL-2,> 100 µM (inactive)
same,GI50,M19-MEL,> 100 µM (inactive)
same,GI50,CAKI-1,> 100 µM (inactive)
same,GI50,NCI-H522,> 100 µM (inactive)
same,GI50,DLD-1,> 100 µM (inactive)
same,GI50,UO-31,> 100 µM (inactive)
same,GI50,HOP-18,> 100 µM (inactive)
same,GI50,HCC 2998,> 100 µM (inactive)
CCOCCOc1ccc(OCCOCC)cc1,GI50,NCI-H460,29.5 µM (inactive)
same,GI50,MOLT-4,7.71 µM (inactive)
same,GI50,OVCAR-4,6.04 µM (inactive)
same,GI50,RPMI-8226,3.51 µM (inactive)
same,GI50,HOP-62,> 100 µM (inactive)
same,GI50,SF-295,25.4 µM (inactive)
same,GI50,DMS-273,21.6 µM (inactive)
same,GI50,HT-29,16.9 µM (inactive)
same,GI50,SK-OV-3,> 81.8 µM (inactive)
same,GI50,SNB-75,18.8 µM (inactive)
same,GI50,KM-20L2,26.2 µM (inactive)
same,GI50,Malme-3M,13.4 µM (inactive)
same,GI50,HCT-116,17.2 µM (inactive)
same,GI50,SNB-19,> 100 µM (inactive)
same,GI50,SK-MEL-5,22.4 µM (inactive)
same,GI50,IGROV-1,20 µM (inactive)
same,GI50,KM12,31.5 µM (inactive)
same,GI50,UACC-257,17.5 µM (inactive)
same,GI50,MCF7,14 µM (inactive)
same,GI50,SN12C,16.8 µM (inactive)
same,GI50,HL-60,3.4 µM (inactive)
same,GI50,SF-268,17 µM (inactive)
same,GI50,OVCAR-3,30.1 µM (inactive)
same,GI50,NCI-H23,29.9 µM (inactive)
same,GI50,A549,37.6 µM (inactive)
same,GI50,SNB-78,> 42.7 µM (inactive)
same,GI50,LOX IMVI,17.9 µM (inactive)
same,GI50,OVCAR-5,> 100 µM (inactive)
same,GI50,SF-539,> 10 µM (inactive)
same,GI50,DMS-114,4.51 µM (inactive)
same,GI50,SK-MEL-28,20.3 µM (inactive)
same,GI50,XF498,16.4 µM (inactive)
same,GI50,HCT-15,16.9 µM
same,GI50,NCI-H226,31.9 µM (inactive)
same,GI50,U-251,34 µM (inactive)
same,GI50,UACC-62,19 µM (inactive)
same,GI50,CCRF-CEM,2.74 µM (inactive)
same,GI50,COLO 205,15.9 µM (inactive)
same,GI50,OVCAR-8,16.6 µM (inactive)
same,GI50,A498,36.3 µM (inactive)
same,GI50,K562,7.91 µM (inactive)
same,GI50,SW-620,19.2 µM (inactive)
same,GI50,RXF 393,18.1 µM (inactive)
same,GI50,SK-MEL-2,> 43 µM (inactive)
same,GI50,M19-MEL,26 µM (inactive)
same,GI50,NCI/ADR-RES,16.4 µM (inactive)
same,GI50,DLD-1,10.1 µM (inactive)
same,GI50,UO-31,13.6 µM (inactive)
same,GI50,HOP-18,10.7 µM (inactive)
same,GI50,HCC 2998,37.3 µM (inactive)
O/N=C1/CCCC/C1=C\c1ccc(Cl)c(Cl)c1,GI50,NCI-H460,23.9 µM (inactive)
same,GI50,MOLT-4,15.2 µM (inactive)
same,GI50,OVCAR-4,21.5 µM (inactive)
same,GI50,786-0,29.9 µM (inactive)
same,GI50,HOP-62,49 µM (inactive)
same,GI50,SF-295,40.5 µM (inactive)
same,GI50,DMS-273,24.7 µM (inactive)
same,GI50,M14,28.2 µM (inactive)
same,GI50,HT-29,18.8 µM (inactive)
same,GI50,SK-OV-3,35.3 µM (inactive)
same,GI50,EKVX,23.9 µM (inactive)
same,GI50,SNB-75,20.7 µM (inactive)
same,GI50,LXFL 529,19.7 µM (inactive)
same,GI50,KM-20L2,20.5 µM (inactive)
same,GI50,HCT-116,17.2 µM (inactive)
same,GI50,SNB-19,27.9 µM (inactive)
same,GI50,SK-MEL-5,16.1 µM (inactive)
same,GI50,IGROV-1,38 µM (inactive)
same,GI50,SN12C,18.4 µM (inactive)
same,GI50,ACHN,28.7 µM (inactive)
same,GI50,HL-60,3.8 µM (inactive)
same,GI50,SF-268,25.1 µM (inactive)
same,GI50,TK-10,34.8 µM (inactive)
same,GI50,OVCAR-3,21.8 µM (inactive)
same,GI50,NCI-H23,28.8 µM (inactive)
same,GI50,A549,30.1 µM (inactive)
same,GI50,SNB-78,22.9 µM (inactive)
same,GI50,LOX IMVI,21 µM (inactive)
same,GI50,SF-539,19 µM (inactive)
same,GI50,DMS-114,19.3 µM (inactive)
same,GI50,SK-MEL-28,34.2 µM (inactive)
same,GI50,XF498,19.8 µM (inactive)
same,GI50,HCT-15,28.4 µM
same,GI50,U-251,17.3 µM (inactive)
same,GI50,UACC-62,29.7 µM (inactive)
same,GI50,CCRF-CEM,18.9 µM (inactive)
same,GI50,COLO 205,19.7 µM (inactive)
same,GI50,OVCAR-8,33.7 µM (inactive)
same,GI50,A498,29.6 µM (inactive)
same,GI50,K562,27.8 µM (inactive)
same,GI50,SW-620,46.6 µM (inactive)
same,GI50,M19-MEL,37.3 µM (inactive)
same,GI50,CAKI-1,32.5 µM (inactive)
same,GI50,DLD-1,32.9 µM (inactive)
same,GI50,UO-31,20.8 µM (inactive)
same,GI50,HOP-18,22.1 µM (inactive)
same,GI50,HCC 2998,29 µM (inactive)
